{"source": "patent US11174518B2", "about": "“Method of classifying and diagnosing cancer” (Cedars-Sinai Medical Center, priority 2015, dated 2021)", "tested_on": "circulating tumor cells (CTC) from patients with CRPC", "assay": "Enzalutamide resistance of patient CTCs assigned to PCS subtypes by the 37-gene classifier", "assay_type": "in vivo, human", "conditions": "for Enzalutamide resistance / Enzalutamide resistance: proportion of CTCs from patients with enzalutamide-resistant tumors: patient CTCs", "from_the_text": "A random forest machine learning algorithm was employed to develop a diagnostic gene panel. For parameter estimation and training the model, we used the merged dataset. Initially, the model comprised of the 428 SEGs as a set of predictors and subtype label of the merged dataset was used as a response variable for model training. […] We then permuted the values for each gene across every sample and measured how much worse MSE became after the permutation. […] We analyzed single-cell RNA-seq data from 77 intact CTCs isolated from 13 patients (Miyamoto D T, Zheng […], Lee R J, Zhu H, Broderick K T, et al. RNA-Seq of single prostate CTCs implicates noncanonical Wnt signaling in antiandrogen resistance. Science 2015; 349:1351-6). Prior to the clustering analysis to investigate the expression patterns of these CTC data, the normalized read counts as read-per-million (RPM) mapped reads were transformed on a log 2 scale for each gene.", "data": [{"smiles": "CNC(=O)c1ccc(N2C(=S)N(c3ccc(C#N)c(C(F)(F)F)c3)C(=O)C2(C)C)cc1F", "note": "[Enzalutamide, enzalutamide]", "values": [{"measurement": "OR for CTCs from patients with radiographic and/or PSA progression during enzalutamide therapy", "setting": "GROUP II CTCs (high expression of PCS1-enriched genes), 5 of the 7 CTCs, 95% confidence interval 0.49-6.06", "result": 1.74}, {"measurement": "Enzalutamide resistance", "setting": "PCS1 subtype", "result": "Yes"}, {"measurement": "Enzalutamide resistance: proportion of CTCs from patients with enzalutamide-resistant tumors", "setting": "PCS1 subtype (7 CTCs out of 12)", "result": 58, "unit": "%"}, {"measurement": "Enzalutamide resistance", "setting": "PCS2 subtype", "result": "No"}, {"measurement": "Enzalutamide resistance: proportion of CTCs from patients with enzalutamide-resistant tumors", "setting": "PCS2 subtype (5 CTCs out of 65)", "result": 8, "unit": "%"}]}]}
